Structures are written as SMILES. Non-standard residues stand in square brackets, D forms with d. Residues, ends and D or L forms follow the SMILES beside them. pGlu = O=C1CC[CH](C(=O)O)N1

On to `CN(Cc1cc(C(F)(F)F)cc(C(F)(F)F)c1)C(=O)c1nc(NCc2ccccc2)ncc1-c1ccccc1`, for which the melting point (in general, the temperature of the solid-liquid transition) lay in the range of 128 to 130 °C.

The compound `O=C(C=Cc1ccccc1)NN1CC(=O)NC1=O` displayed a melting point of 276 to 278 °C.

Turning to `CNC(=O)c1ccc(C=CC(=O)NCC(=O)N(C)c2ccc(C)c(COc3cccc4c3nc(S)n4C)c2C)cc1`, the melting point was 278 to 292 °C.

Turning to `Cc1ccccc1COCCCC(=O)O`, the melting point fell in the range of 79 to 80 °C.

As for `O=C(O)CCc1ccc(CCNC(=O)C2Cc3ccccc3N2S(=O)(=O)c2ccc(-c3cccc(C(F)(F)F)c3)cc2)cc1` (stereo unspecified), the melting point was 86 °C.

`CNC(=O)Oc1ccc2c(ccn2NCCCc2ccncc2F)c1`: the melting point was in the range of 165 to 166 °C.

Take `CC(C)c1sc2ncnc(N)c2c1-c1ccc([N+](=O)[O-])cc1`: the melting point was more than 260 °C.

Turning to `OC(c1ccnc2cc(Cl)ccc12)C(F)(F)F` (stereo unspecified), the melting point came out at 161 °C.

`CC(=O)NC(Cl)CCC(=O)c1ccccc1` (stereo unspecified) gave a melting point of 157 to 163 °C.

Turning to `N#CCCOC(=O)C=C1C=C(c2ccccc2)S(=O)(=O)C(c2ccccc2)=C1`, the melting point was 156 to 157 °C.

On to `Cn1c(C(F)(F)F)cc(=O)n(-c2cc(Oc3ncccn3)c(Cl)cc2F)c1=O`, for which the melting point lay within 192 to 194 °C.

As for `CCCc1nc2cnc3ccccc3c2n1CCC1(O)CCOCC1`, the melting point was in the range of 186 to 188 °C.

`COc1cc(CCc2ccc(C)cc2)cc(OC)c1OC` had a melting point of 51 to 52 °C.

Consider `C=CCOc1cc(C=CC(=O)O)ccc1OC(C)=O`, for which the melting point fell in the range of 154 to 155 °C.

On to `CCOC(=O)c1c(CCc2ccc(OC)cc2)oc2ccc(C#N)cc12`, for which the melting point was 135 to 139 °C.

For the compound `Cc1cc(-n2ccnc2)c2cccc(OCc3c(Cl)ccc(S(=O)(=O)N4CCC[C@H]4C(=O)NCc4ccccn4)c3Cl)c2n1`, the melting point amounted to 102 °C.

As for `COc1ccc(-c2cc(-c3ccccc3)[nH]c2C(=O)NCc2ccc(C(=O)Nc3ncccn3)cc2)cc1`, the melting point was in the range of 190 to 191 °C.

`NC(=O)NN=Cc1ccc(OCc2ccccc2F)cc1` came in with a melting point of 211 to 212 °C.

In the case of `CC(C)CCNC(=O)c1ccc2c(c1)N(C(C)CN1CCCC1CO)c1ccccc1S2` (stereo unspecified), the melting point came out at 140 °C.

Take `Fc1ccc(C2=CCC3(CC2)OCCO3)cc1`: the melting point is 84 to 85 °C.

As for `COC(=O)[C@H](CCCO)NC(=O)[C@H](Cc1ccccc1)NC(=O)OCc1ccccc1`, the melting point was in the range of 155 to 157 °C.

Turning to `O=CNCc1ccc(CN2CCN(c3ccccc3)CC2)cc1`, the melting point lay within 108 to 109 °C.

Regarding `COc1ccc(CNc2nc(NCc3ccc(C(O)C(F)(F)F)cc3)nc3ncccc23)cc1OC` (stereo unspecified), the melting point was in the range of 121 to 122 °C.

Take `N#Cc1c(N2CCc3ccccc3CC2)nc(CCOC2CCCCO2)[nH]c1=O` (stereo unspecified): the melting point lay within 185 to 187 °C.

As for `C=CCc1cc(Nc2ccn(-c3ccccc3)n2)cc(CC=C)c1O`, the melting point was in the range of 87 to 88 °C.

`COc1cc2nc(-c3cc(C)c(OCC(N)=O)c(C)c3)[nH]c(=O)c2cc1OC`: the melting point fell in the range of 354 to 356 °C.

With `Nc1ccc(CCNC(=O)C(F)(F)F)cc1`, the melting point was in the range of 81 to 85 °C.

`Cc1c(C(=O)C(=O)NC2=CC(=O)OC2)c2ccccc2n1Cc1ccc(Cl)cc1` displayed a melting point of 254 to 256 °C.

In turn, `Cc1nnc(Cl)c(-c2c(F)cc(F)cc2F)c1-c1ccc2ccccc2c1` displayed a melting point of 86 to 89 °C.

`O=C(NNc1ccccc1)N1CCN2C(=O)OC(c3ccccc3)(c3ccccc3)C2C1` (stereo unspecified) showed a melting point of 227 to 228 °C.

In the case of `COc1ccc(CNc2nc(CCCC(=O)O)nc3[nH]c4ccccc4c23)cc1Cl`, the melting point turned out to be 143 °C.

With `Cc1nnc2n1-c1sccc1C(c1ccccc1[N+](=O)[O-])=NC2`, the melting point was 260 to 262 °C.

`CN1CCN(C2=Nc3ccccc3N(C)c3sc4ccccc4c32)CC1` had a melting point of 88 to 90 °C.

`NC(=O)CC(NC(=O)C(CO)NC(=O)CNC(=O)CNC(=O)C1CCC(=O)N1)C(=O)NC(Cc1ccccc1)C(N)=O` (stereo unspecified) ([pGlu]GGSNF-NH2; configuration not given here): the melting point is 218 to 221 °C.

Compound `COc1ccc(Cl)cc1C(=O)NCCc1ccc(-c2ccc(O)cc2)cc1` returned a melting point of 169 °C.

`CCN(CC)CCN1c2cc(Cl)ccc2S[C@H]2[C@@H](OC(=O)c3ccccc3)[C@H](OC(=O)c3ccccc3)[C@@H](COC(=O)c3ccccc3)O[C@H]21` displayed a melting point of 124 to 126 °C.

`O=C(O)c1ccccc1OCCN1CCC(c2cn(CCOc3ccc4c(c3)OCO4)c3ccccc23)CC1` came in with a melting point of 123 to 125 °C.

The compound `CC(C)(C)OC(=O)NCc1cccc(CC(=O)O)c1` gave a melting point of 95 to 96.5 °C.

With `CC(O)Cn1nc2c3c(cc(N)cc31)CCC2` (stereo unspecified), the melting point lay in the range of 125 to 127 °C.

Compound `COc1cc(C=CC(CSc2ccccc2)=NO)ccc1O` gave a melting point of 90 to 100 °C.

`CC1(C)OC(=O)COC1=O` gave a melting point of 82 to 83 °C.

`O=C(NCCO)c1cc(-c2cccc3cc(Cc4cccc(C(F)(F)F)c4)sc23)ncc1F` displayed a melting point of 110 to 111 °C.

Turning to `N#CSCC1CC(=O)N(c2ccc(F)cc2)C1=O` (stereo unspecified), the melting point was 88 °C.

`CCC(=S)c1ccc(C)cc1` showed a melting point of 55 to 56 °C.

`Cc1cccc(C)c1C(=O)N1C(=O)CN(c2ccccc2)C1=O` showed a melting point of 135 to 137 °C.

`COc1cc(C(C)C)ccc1C1(O)C(=O)c2ccc(N)c(N)c2C1=O` (stereo unspecified) gave a melting point of 272 to 274 °C.

As for `CCCCCCCCCCCCCCCCCC(=S)SCC(C)C(=O)N1CCCC1C(=O)O` (stereo unspecified), the melting point fell in the range of 50 to 51 °C.

With `CC(C)(C)OC(=O)/C=C/c1ccnc(-c2nc(=O)c3ccccc3s2)c1`, the melting point is 196 to 197 °C.

Compound `COc1cc(O)cc2c1-c1c(O)cccc1C2=O` yielded a melting point of 71 to 72 °C.

As to `Cc1cc(Cl)ccc1OCC(=O)N1Cc2ccc(C(=O)c3ccc(-c4ccccc4)cc3)n2Cc2ccccc21`, the melting point fell in the range of 102 to 105 °C.

As for `N#Cc1c(NC(=O)C2CCCCC2)sc(-c2ccccc2)c1Br`, the melting point lay in the range of 167 to 168 °C.

As for `COc1cc(-c2nc(NC3CCCC3)c3c(C)c(C#N)sc3n2)cc(OC)c1OC`, the melting point was in the range of 218 to 220 °C.

For the compound `CCCc1nc2c(N)nc3ccccc3c2n1CC(C)(C)CC1(C)OCCO1`, the melting point fell in the range of 186 to 188 °C.

Compound `O=Cc1ccccc1-c1ccc(C(=O)Nc2ccc3cccnc3c2)cc1` showed a melting point of 258 to 260 °C.

As to `O=C(CCl)NCC1OCCO1`, the melting point was 61 to 63 °C.

The compound `O=c1c(O)c(-c2ccco2)oc2ccccc12` displayed a melting point of 173 to 174 °C.

Regarding `CC(=O)OC(OC(C)=O)c1ccc(C(OC(C)=O)(C(F)(F)F)C(F)(F)F)cc1`, the melting point was in the range of 93 to 94.6 °C.

Regarding `Cc1ccc(S(=O)(=O)N2[C@@H](c3noc(C)n3)CC[C@H]2c2ccc(F)cc2)cc1` (racemic), the melting point came out at 115 °C.

For `CCn1cc(C)c(=S)[nH]c1=O`, the melting point lay in the range of 205 to 206 °C.

Regarding `O=C1NCNCC1(c1ccccc1)c1ccccn1` (stereo unspecified), the melting point lay in the range of 201 to 203 °C.

For `CCn1cc(C(=O)O)c(=O)c2ccc(C3CCCCC3)cc21`, the melting point is 222 to 224 °C.

`CCCCCCCCCN(O)C(=O)N(C)C`: the melting point lay within 39 to 40 °C.

Take `CC(=O)Nc1cc2c(cc1Br)C(Nc1ccc(C(=O)OC(C)(C)C)c(F)c1)CC2` (stereo unspecified): the melting point is more than 70 °C.

As to `CCC(O)c1cc2c(=O)n(NS(C)(=O)=O)c(=O)[nH]c2cc1C(F)(F)F` (stereo unspecified), the melting point lay in the range of 219 to 222 °C.

Consider `COc1cc(C(=O)c2ccc(Cl)cc2)cc([N+](=O)[O-])c1O`, for which the melting point lay within 128 to 131 °C.

As for `Nc1c(C(O)(C(F)(F)F)C(F)(F)F)ccc2cc(O)ccc12`, the melting point is 160 to 161 °C.

`O=C1COCC2=C1C(c1ccc(F)c(Br)c1)C1=C(CNC1=O)N2` (stereo unspecified) displayed a melting point of more than 260 °C.

On to `CC(C)c1nc(C(C)C)c(CO)c(-c2ccc(F)cc2)c1/C=C/c1ccccc1`, for which the melting point is 107 to 110 °C.

Turning to `CS(=O)(=O)c1ccc(-c2ccccc2Cc2cccc(F)c2)cc1`, the melting point was in the range of 97 to 98 °C.

`CC(=O)c1ccc(C2=CCCCC2)cc1`: the melting point was in the range of 76 to 77 °C.

Compound `O=C(O)c1ccc(Cc2nc3ccccc3[nH]2)cc1` gave a melting point of 265 to 267 °C.

`CC(=O)Nc1nc(-c2cccnc2)c(-c2ccccc2)s1` came in with a melting point of 264 to 267 °C.

On to `CCc1nn(-c2ccccn2)c2[nH]c3cc(F)c(F)cc3c(=O)c12`, for which the melting point lay in the range of 247 to 248 °C.

As for `CCOC(=O)Nc1nc(-c2ccccc2)c(-c2nc3ccccc3c(=O)n2-c2ccccc2)s1`, the melting point was 245 to 247 °C.

With `COC(=O)C1=C(C)NC(C)=C(C(=O)OCC2CCCO2)C1c1cccc(Cl)c1Cl` (stereo unspecified), the melting point is 172 to 173 °C.

Compound `CC(C)N1Cc2ccc(F)cc2N(CCN2CC=C(c3c[nH]c4cc(F)ccc34)CC2)S1(=O)=O` showed a melting point of 101 to 103 °C.

`Cc1cc(C)c2[nH]c(C(=O)NC(N)=S)cc2c1` gave a melting point of 220 to 223 °C.

In the case of `CS(=O)(=O)N1CCC(Nc2ncc3cc(Cc4ccccn4)c(=O)n(C4CCCC4)c3n2)CC1`, the melting point lay in the range of 220 to 223 °C.

In turn, `CN(C)C1CC2=CNC=C3C=C(C#N)OCC1=C32` (stereo unspecified) gave a melting point of 205 to 207 °C.

Compound `NC(=O)c1nnn(Cc2ccc(C(=O)c3c(Cl)cccc3Cl)cc2)c1N` showed a melting point of 165 to 167 °C.

In the case of `O=C(NCc1ccc2c(c1)OCO2)c1ccc2[nH]c(=O)n(Cc3cccs3)c(=O)c2c1`, the melting point worked out at 270 °C.

With `CSc1cc(-n2ncc(-c3ccc(S(C)(=O)=O)cc3)c(-c3ccc(F)cc3)c2=O)ccc1F`, the melting point is 105 to 107 °C.

For `CCc1ncc2c3c(ccc2n1)OCC(CN1CC=C(c2c[nH]c4ccccc24)CC1)O3` (stereo unspecified), the melting point fell in the range of 203 to 211 °C.

`CC(=O)C(c1ccccc1)c1cccc2c1NCC2` (stereo unspecified) showed a melting point of 55 to 56 °C.

With `COc1cc(Nc2nccc(-c3ccc(N4CCNCC4)nc3)n2)cc(OC)c1OC`, the melting point is 103 °C.

For `COc1ccccc1CNC(=O)C1N(C(=O)C(O)C(Cc2ccccc2)NC(=O)c2cccc(O)c2C)CSC1(C)C` (stereo unspecified), the melting point was 123 to 125 °C.
